Results on one molecule are retold here after paper PMC8708704, “Discovery of New Chemical Tools against Leishmania amazonensis via the MMV Pathogen Box” (Pharmaceuticals, 2021).

Where two headings read alike, the source gives them in different places.

A short description of data set [1]: Cytotoxic activity against murine macrophages (alamarBlue). As to conditions: mouse, J774A.1 murine macrophages. (Alamar Blue is a resazurin reagent that responds to reducing activity.)
The test system of data set [2] is L. amazonensis promastigotes. Description: Phosphatidylserine externalization (annexin V / propidium iodide, Tali). Particulars: IC90, 24 h (Figure 4 legend: 48 h). It is filed as cell-based, Leishmania amazonensis. An excerpt:
To measure the level of population that experiments phosphatidylserine externalization from the inner to the outer part of the cytoplasmic membrane, an Apoptosis kit for Tali (Invitrogen, Thermo Fisher Scientific, Waltham, MA, USA) was utilized. The kit employs annexin-v, which binds to the external phosphatidylserine, and propidium iodide, that penetrates dead cells, to classify the population of the cells as: alive ([…]), dead (propidium stained), and apoptotic (annexin stained). […] A minimum of three independent experiments were performed for this assay. The cells were then quantified by the image-based cytometer Tali® (Life Technologies, Thermo Fisher Scientific, Waltham, MA, USA).

The test system of data set [3] is Leishmania amazonensis promastigotes. As to the kind of experiment: Leishmanicidal activity against promastigotes (alamarBlue assay; screening at 10 µM and IC50). The data set is classed as cell-based. As to conditions: 72 h, 72 h; for IC50: alamarBlue, read-out: Leishmania amazonensis Promastigotes IC50. The protocol: For the experiments, promastigotes of Leishmania amazonensis strain (MHOM/BR/77/LTB0016) were used; they were maintained in RPMI 1640 medium (Gibco, Massachusetts, USA) at 26 °C. […] Subsequently, the plates were analyzed on an EnSpire multimode plate reader (PerkinElmer, MA, USA) to measure their fluorescence after 72 h. […] To this end, serial dilutions were performed in 96 well plates, and incubated with the parasites for 72 h after adding alamarBlue®. Next, the plates were analyzed on the EnSpire plate reader and the IC50 values were calculated by using SigmaPlot 14.0 (Systat Software Inc., Chicago, IL, USA). Each concentration was tested in duplicate and in three independent experiments for all the compounds.

For data set [4] the test system is unchanged. Description: ATP levels (CellTiter-Glo). The data set is classed as cell-based. Particulars: IC90 of the compounds, 24 h. The protocol: To detect alterations due to the different treatments on the cellular ATP levels, CellTiter-Glo (Promega) was utilized. […] Finally, luminescence was measured on the EnSpire spectrophotometer (Perkin Elmer). The experiment was performed at least three times in duplicate on different days.
(Cellular ATP, detected with luciferase, serves as a proxy for viable cell number.)

A further data set has as its system CYP2C9. Further details: method as in mmv.org. As to conditions: human cytochrome; ref mmv.org; cited from earlier work.
The next data set relates to CYP2D6. Further details: method as in mmv.org. As to conditions: human cytochrome; ref mmv.org; cited from earlier work.
Another data set has as its system thioredoxin reductase. Further details: method as in PMID 18532880. As to conditions: cited from earlier work.
On the set-up of data set [5]: method as in mmv.org. As to conditions: ref mmv.org; cited from earlier work.
Data set [6] has as its system Leishmania amazonensis intracellular amastigote. Description: Intracellular amastigote activity (parasite rescue and transformation assay). It is filed as cell-based. How it is done: The intracellular amastigote activity was measured by parasite rescue and transformation assay, also performed according to Jain et al. […] The macrophages were placed in a 96 well plate at a density of 2 × 10^5/mL in DMEM and incubated for 5 h. […] After the incubation, the excess promastigotes were washed off and serial dilutions of the compounds were added. After 24 h of incubation, we removed the medium and added 30 μL of Schneider medium with 0.05% SDS to break the macrophages. The plate was shaken for 30 s and a further 180 μL of medium was added to each well. The plates were then incubated at 26 °C for 72 h for the transformation of the rescued amastigote into promastigotes. AlamarBlue® was added and the plates were measured and analyzed as discussed above.

In general, CC50 refers to the concentration that lowers cell viability or growth by half. Read a high CC50 as better tolerance by the cells. One may read the IC50 as the point on the concentration scale where inhibition reaches its midpoint. The term inhibition denotes how much of the control response was suppressed. Consider `COc1cccc(-n2nnnc2S(=O)(=O)Cc2ccccc2)c1` [Compound 3, 5-(Benzylsulfonyl)-1-(3-methoxyphenyl)-1H-tetrazole], for which, in data set [1], the CC50 at 24 h was found to be 8.02 ± 0.93 µM. The “Dead population (propidium iodide stained)” value in data set [2] was “higher percentage”. Further, the “Translocation of phosphatidylserine, part of the parasite population” value in data set [2] is “higher than 50%”. Further, the IC50 in data set [3] (Leishmania amazonensis) is < 2 µM; in data set [3] it was 1.33 ± 0.12 µM; in the data set with CYP2C9, > 20 µM; in the data set on CYP2D6, 15 µM; in data set [6] (Leishmania amazonensis, Macrophage, 24 h treatment of infected macrophages, rescue 72 h, read-out: Leishmania amazonensis Intracellular Amastigote IC50) it was 4.78 ± 1.2 µM. Moreover, the inhibition at 10 µM in data set [3] (Leishmania amazonensis, first screening, 10 µM, read-out: % of inhibition at 10 µM (against L. amazonensis promastigotes)) was 91%. In [4], the ATP levels entry is given as “strong decrease”. In the data set with thioredoxin reductase, the “Interference with thioredoxin reductase” value is listed as “interferes”. Also, the “Glutathione Reactivity” value in [5] was “Medium”. In [6] (macrophage CC50 / amastigote IC50), the “Selectivity Index (CC50/IC50), intracellular amastigote” value is 1.68.
